Data as given in ChEMBL document CHEMBL1201862, “PubChem BioAssay data set” (2004).
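Results reflect a 48-hour exposure of cells in 96-well plates to compound at five concentrations. GI50 = concentration required for 50% inhibition of growth.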 The source made the active and inactive calls. No stated cut-off is given here; in the data, active = GI50 up to about 1.1 µM and inactive = higher.

What was measured:
Assay in all cases: NCI tumour cell line growth inhibition, 48 h
ACHN = system: ACHN
SN12C = system: SN12C
UACC-62 = system: UACC-62
SF-268 = system: SF-268
M14 = system: M14
786-0 = system: 786-0
NCI-H460 = system: NCI-H460
SF-295 = system: SF-295
NCI-H23 = system: NCI-H23
Hs-578T = system: Hs-578T
SF-539 = system: SF-539
IGROV-1 = system: IGROV-1
HL-60 = system: HL-60
SNB-75 = system: SNB-75
BT-549 = system: BT-549
SR = system: SR
HT-29 = system: HT-29
HOP-92 = system: HOP-92
LOX IMVI = system: LOX IMVI

Measured: GI50

Cc1ccc(S(=O)(=O)NC(=O)NC2=NC(C)(C)N(c3ccc(Cl)c(Cl)c3)C(N)=N2)cc1
inactive: ACHN 11.1 µM | SN12C 20.6 µM | UACC-62 7.59 µM | SF-268 20.5 µM | M14 17.6 µM | 786-0 8.3 µM | NCI-H460 36 µM | SF-295 41.5 µM | NCI-H23 11.4 µM | Hs-578T 47.8 µM | SF-539 29.2 µM | IGROV-1 19 µM | HL-60 29.5 µM | SNB-75 31.6 µM | BT-549 > 100 µM | SR 8.75 µM | HT-29 28.7 µM

O=C(OCc1ccccc1)N1CCN(C(=O)OCc2ccccc2)CCN(C(=O)OCc2ccccc2)CCN(C(=O)OCc2ccccc2)CCN(C(=O)OCc2ccccc2)CC1
inactive: ACHN > 100 µM | SN12C > 100 µM | UACC-62 > 100 µM | M14 35.3 µM | HOP-92 70.5 µM | 786-0 16.8 µM | NCI-H460 > 100 µM | SF-295 > 100 µM | LOX IMVI 80 µM | Hs-578T 39.3 µM | SF-539 28.3 µM | SNB-75 30.9 µM | BT-549 > 100 µM

Cn1cc(-c2ccc(CCOC3CCCCO3)cc2)c2c(C#N)cccc21 (stereo unspecified)
inactive: SN12C > 100 µM | UACC-62 44.6 µM | SF-268 > 100 µM | M14 37.8 µM | HOP-92 > 100 µM | 786-0 92.3 µM | NCI-H460 42.6 µM | SF-295 34.7 µM | LOX IMVI 41.9 µM | NCI-H23 48.3 µM | Hs-578T > 100 µM | SF-539 55 µM | IGROV-1 > 100 µM | HL-60 19.9 µM | BT-549 98.6 µM | SR 17.2 µM | HT-29 17 µM

Cc1ccc(S(=O)(=O)NC(=O)NCC(N)=O)cc1
inactive: ACHN > 100 µM | SN12C > 100 µM | UACC-62 > 100 µM | SF-268 > 100 µM | M14 > 100 µM | HOP-92 > 100 µM | 786-0 > 100 µM | NCI-H460 > 100 µM | SF-295 > 100 µM | LOX IMVI > 100 µM | NCI-H23 > 100 µM | Hs-578T > 100 µM | SF-539 > 100 µM | IGROV-1 > 100 µM | HL-60 > 100 µM | SNB-75 > 100 µM | BT-549 > 100 µM | HT-29 > 100 µM

O=C1N=C(SC2OC(CO)C(O)C(O)C2O)S/C1=C\c1ccccc1 (stereo unspecified)
inactive: ACHN > 100 µM | SN12C > 100 µM | UACC-62 > 100 µM | SF-268 > 100 µM | M14 > 100 µM | 786-0 > 100 µM | NCI-H460 > 100 µM | SF-295 > 100 µM | LOX IMVI > 100 µM | NCI-H23 > 100 µM | Hs-578T > 100 µM | SF-539 > 100 µM | IGROV-1 > 100 µM | HL-60 > 100 µM | SNB-75 > 100 µM | BT-549 > 100 µM | SR > 100 µM | HT-29 > 100 µM

O=S(=O)(O)c1cc(S(=O)(=O)O)c2c(Nc3ccnc4ccccc34)ccc(S(=O)(=O)O)c2c1
inactive: ACHN > 100 µM | SN12C > 100 µM | UACC-62 > 100 µM | SF-268 > 100 µM | M14 > 100 µM | 786-0 > 100 µM | NCI-H460 > 100 µM | SF-295 > 100 µM | LOX IMVI > 100 µM | NCI-H23 > 100 µM | Hs-578T > 100 µM | SF-539 > 100 µM | IGROV-1 > 100 µM | HL-60 > 100 µM | SNB-75 > 100 µM | BT-549 > 100 µM | HT-29 > 100 µM

N#Cc1ccc(/C=[N+](/C=c2ccc(=C=[N-])cc2)N(CCO)C2=NCCN2)cc1
inactive: ACHN > 100 µM | SN12C > 100 µM | UACC-62 > 100 µM | SF-268 > 100 µM | M14 > 100 µM | 786-0 > 100 µM | NCI-H460 > 100 µM | SF-295 > 100 µM | LOX IMVI > 100 µM | NCI-H23 > 100 µM | Hs-578T > 100 µM | SF-539 > 100 µM | IGROV-1 > 100 µM | HL-60 > 100 µM | SNB-75 > 100 µM | BT-549 > 100 µM | SR > 100 µM | HT-29 > 100 µM

CNc1nc(OC)c2c(n1)n(C)c[n+]2C [HETEROMINE B]
inactive: ACHN > 100 µM | SN12C > 100 µM | UACC-62 > 100 µM | SF-268 > 100 µM | M14 > 100 µM | HOP-92 41.2 µM | 786-0 > 100 µM | NCI-H460 > 100 µM | SF-295 > 100 µM | LOX IMVI > 100 µM | NCI-H23 > 100 µM | Hs-578T 31.6 µM | SF-539 > 100 µM | IGROV-1 > 100 µM | HL-60 > 100 µM | SNB-75 > 100 µM | BT-549 > 100 µM | HT-29 > 100 µM
